In paper PMC4506051, “Pharmacokinetic Profiles of Active Ingredients and Its Metabolites Derived from Rikkunshito, a Ghrelin Enhancer, in Healthy Japanese Volunteers: A Cross-Over, Randomized Study” (PLoS ONE, 2015):
Where two headings read alike, the source gives them in different places.

Assays:
[1] = test system: 5-HT2BR; parameters: method as in PMID 18439428; details: cited from earlier work
[2] = Method validation: post-preparative stability (autosampler)
[3] = Method validation: long-term stability in plasma
[4] = Method validation: stability in standard, stock and working solution; details: for Stock solution stability, RR: 0.1 mg/mL
[5] = Method validation: stability in blood
[6] = Exploratory trial: ingredients in β-glucuronidase (enzyme)-treated urine; format: in vivo, human; details: β-glucuronidase-treated, mean ± S.D., n = 4
Experimental: In the first exploratory trial, 20-mL blood samples were collected from the cutaneous vein in the subjects’ forearm via a blood sampling tube that contained heparin at 0 (preadministration), 0.5, 1, 2, 4, and 8 h after a single oral administration of rikkunshito (Lot E24652). The dose of rikkunshito used in this trial was 7.5 g/day, which is the clinical daily dose, to widely explore rikkunshito-derived ingredients that enter the blood. Along with plasma, urine samples were collected at three points: between dinner and bedtime (preadministration), between 0 and 4 h after administration, and between 4 and 8 h after administration. The blood was immediately centrifuged at 1700 ×g for 10 min to obtain plasma. Plasma and urine fractions were stored at −80°C or lower until analysis.
For quantification of 30 ingredients other than atractylodin and synephrine, 25 µL of standard solution or methanol was added to 500 µL plasma or urine samples followed by mixing. Atractylenolide III or digoxin (IS) solution (50 μL) was added to the solutions followed by mixing. For urine, 400 µL of blank plasma was added to the solutions. Ammonium acetate solution (100 mM, 100 or 400 µL) was added to the solutions followed by mixing. For enzymatic treatment, plasma and urine samples were incubated with β-glucuronidase (100 units in 100 mM ammonium acetate) for 2 h at 37°C. A solid-phase cartridge (OASIS HLB, 30 mg/1cc, Waters) was conditioned with methanol and 10 mM ammonium acetate solution, and the samples were loaded onto the cartridge. The cartridge was washed water : methanol (9:1, v/v), and 1.5 mL of methanol and 30 µL of propylene glycol were added to the cartridge to elute the analytes. The mixtures were dried at 25°C under a stream of nitrogen gas. Furthermore, 100 μL of 10 mM ammonium acetate : methanol (8:2, v/v) was added to the dried samples followed by mixing and sonication. The solutions were filtered (0.22 µm) and followed by injection into the LC–MS/MS system. […] Those analytical conditions are summarized in S2 Table and S3 Table.

[7] = Dose proportionality (linearity) test by power model for C max and AUC0-last; details: rikkunshito 2.5, 5.0 or 7.5 g
Experimental: The dose proportionality was analyzed via a power model [21, 22]. […] Evaluation of linearity of the dosage-exposure relationship was conducted with Phoenix WinNonlin and SAS 9.2 (SAS Institute, Inc., Cary, NC).

[8] = Exploratory trial: amount of rikkunshito ingredients in urine; format: in vivo, human; details: mean ± S.D., n = 4
Method in brief: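 LC–MS/MS measurement of rikkunshito constituents in urine fractions (pre-dose, 0–4 h, 4–8 h) following one 7.5 g oral dose. Other constituents: enzymatic deglucuronidation at 37 °C for 2 h, then SPE cleanup with atractylenolide III or digoxin as IS; synephrine: erythromycin IS, Ostro plate.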

[9] = Stability of ingredients in gastric pH solution (pH 1.2, 37°C); format: physicochemical; details: pH 1.2
Experimental: Rikkunshito gradually dissolved in acidic solution (pH 1.2) at 37°C, and the concentration of atractylodin after adding 0.25, 0.5, 1, and 2 h was measured by gas chromatography–mass spectrometry.

[10] = test system: cisplatin-induced anorexia model; details: cited from earlier work
[11] = test system: ghrelin secretion; details: cited from earlier work
[12] = Exploratory trial: ingredients in β-glucuronidase (enzyme)-treated plasma; format: in vivo, human; details: rikkunshito 7.5 g
Method in brief: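 Healthy subjects took a single oral 7.5 g dose of rikkunshito; heparinised plasma drawn at 0–8 h and urine collected pre-dose, 0–4 h and 4–8 h. Samples incubated with β-glucuronidase (100 units) 2 h at 37°C, solid-phase extracted and quantified by LC–MS/MS.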

[13] = test system: 5-HT2CR; parameters: method as in PMID 18439428; details: cited from earlier work
[14] = oral administration at a dose of 4.0 mg/kg

## O=C(/C=C/c1ccc(O)cc1)c1ccc(O)cc1O [Isoliquiritigenin]
[1]
  5-HT2BR inhibitory/antagonistic activity: inhibits
[1]; listed as isoliquiritigenin
  5-HT2BR inhibitory/antagonistic activity: inhibit
[2]; 4 pg/mL, autosampler set at 4°C for 25 h
  Post-preparative stability, RR: 110.0%
[2]; 4 pg/mL, autosampler set at 4°C for 48 h
  Post-preparative stability, RR: 88.0%
[2]; 160 pg/mL, autosampler set at 4°C for 25 h
  Post-preparative stability, RR: 115.2%
[2]; 160 pg/mL, autosampler set at 4°C for 48 h
  Post-preparative stability, RR: 93.8%
[3]; 4 pg/mL, freezer (−30°C to −10°C) for 22 days
  Long-term stability, RR: 99.0%
[3]; 4 pg/mL, freezer (−30°C to −10°C) for 31 days
  Long-term stability, RR: 105.0%
[3]; 4 pg/mL, freezer (−30°C to −10°C) for 220 days
  Long-term stability, RR: 102.8%
[3]; 160 pg/mL, freezer (−30°C to −10°C) for 22 days
  Long-term stability, RR: 95.0%
[3]; 160 pg/mL, freezer (−30°C to −10°C) for 31 days
  Long-term stability, RR: 87.7%
[3]; 160 pg/mL, freezer (−30°C to −10°C) for 220 days
  Long-term stability, RR: 85.5%
[4]; 0.02 ng/mL, refrigerator (1°C to 8°C) for 53 days
  Working solution stability, RR: 89.9%
[4]; 0.02 ng/mL, refrigerator (1°C to 8°C) for 128 days
  Working solution stability, RR: 108.2%
[4]; 2 ng/mL, refrigerator (1°C to 8°C) for 53 days
  Working solution stability, RR: 92.7%
[4]; 2 ng/mL, refrigerator (1°C to 8°C) for 128 days
  Working solution stability, RR: 102.2%
[4]; refrigerator (1°C to 8°C) for 54 days
  Stock solution stability, RR: 54 days: 96.9%
[4]; refrigerator (1°C to 8°C) for 129 days
  Stock solution stability, RR: 129 days: 96.9%
[5]; 4 pg/mL, at room temperature for 2 h
  Stability in blood, RR: 81.0%
[5]; 4 pg/mL, on ice for 2 h
  Stability in blood, RR: 103.0%
[5]; 160 pg/mL, at room temperature for 2 h
  Stability in blood, RR: 46.8%
[5]; 160 pg/mL, on ice for 2 h
  Stability in blood, RR: 90.2%
[6]; 0–4 h after rikkunshito 7.5 g
  Amount in enzyme-treated urine, 0–4 h: 3060 ± 348 ng
[6]; 4–8 h after rikkunshito 7.5 g
  Amount in enzyme-treated urine, 4–8 h: 5630 ± 2210 ng
[6]; preadministration
  Amount in enzyme-treated urine, Pre: 16.0 ± 17.4 ng
[7]; AUC0-last
  Dose proportionality test using power model, β: 1.27
[7]; Cmax
  Dose proportionality test using power model, β: 0.692
[8]; 0–4 h after single oral rikkunshito 7.5 g
  Amount in urine, 0–4 h: 741 ± 393 ng
[8]; 4–8 h after single oral rikkunshito 7.5 g
  Amount in urine, 4–8 h: 1010 ± 451 ng
[8]; preadministration (between dinner and bedtime)
  Amount in urine, Pre: 0.688 ± 1.38 ng
[9]; 0.5 h
  Stability in gastric pH solution, Quantitative value: 15.2 ng/mL
[9]; 1 h
  Stability in gastric pH solution, Quantitative value: 15.5 ng/mL
[9]; 2 h
  Stability in gastric pH solution, Quantitative value: 15.2 ng/mL
[10]; [14]
  Appetite following cisplatin administration: improves decreased appetite
  Plasma ghrelin concentration following cisplatin administration: inhibits a decrease in plasma ghrelin concentration
[10]; oral administration, cisplatin-induced anorexia model
  Acylated ghrelin level in blood: suppressed the decrease of the acylated ghrelin level in blood in a concentration-dependent manner
[11]
  Known pharmacology activities: ghrelin secretion: Ghrelin secretion promoting activity [14, 15]
[12]; human, oral, β-glucuronidase-treated plasma, four subjects, read-out: C max in enzyme-treated plasma
  Cmax: 0.0872 ng/mL
[12]; human, plasma, oral, β-glucuronidase-treated, 0.5 h, mean ± S.D., n = 4
  concentration at 0.5 h: 0.0872 ± 0.0221 ng/mL
[12]; human, plasma, oral, β-glucuronidase-treated, 1 h, mean ± S.D., n = 4
  concentration at 1 h: 0.0555 ± 0.0187 ng/mL
[12]; human, plasma, oral, β-glucuronidase-treated, 2 h, mean ± S.D., n = 4, read-out: Plasma concentration in enzyme-treated plasma, 2 h
  concentration at 2 h: 0.0606 ± 0.0774 ng/mL
[12]; human, plasma, oral, β-glucuronidase-treated, 4 h, mean ± S.D., n = 4, read-out: Plasma concentration in enzyme-treated plasma, 4 h
  concentration at 4 h: 0.0698 ± 0.0335 ng/mL
[12]; human, plasma, oral, β-glucuronidase-treated, 8 h, mean ± S.D., n = 4, read-out: Plasma concentration in enzyme-treated plasma, 8 h
  concentration at 8 h: 0.0238 ± 0.0354 ng/mL
[12]; β-glucuronidase-treated, 0 h (preadministration), mean ± S.D., n = 4
  Plasma concentration in enzyme-treated plasma, 0 h: BQL
[13]
  5-HT2CR inhibitory activity: inhibits
[13]; listed as isoliquiritigenin
  5-HT2CR inhibitory activity: inhibit
